Measured values reported in patent publication US20140051730A1, “THERAPEUTIC USE OF DIMIRACETAM TO PREVENT THE HAND AND FOOT SYNDROME CAUSED BY SORAFENIB” (NEUROTUNE AG, priority 2010, published 2014).

Experiments:
[1] = tested on: sorafenib induced allodynia; test: Acute experiment: rat cold plate test, sorafenib allodynia; conditions: for Acute antiallodynic efficacy on sorafenib induced allodynia (in words): single p.o. dose on day 14: dimiracetam 300, gabapentin 100, duloxetine 30 mg/kg, rat cold plate
Protocol: Male Sprague Dowley adult rats (200-220 g—aged 7 weeks) were used. Groups of 4 rats were housed in 26 by 41 cm cages that were placed in the experimental room 24 h before the test for acclimatization. The animals were fed a standard laboratory diet and tap water ad libitum and kept at 23±1° C. with a 12 h light/dark cycle, light on at 7 a.m. All experiments were carried out in accordance with the European Communities Council Directive of 24 Nov. 1986 (86/609/EEC) for experimental animal care. All efforts were made to minimize the number of animals used and their suffering.
Dimiracetam, duloxetine and gabapentin were dissolved in water. Drug concentrations were adjusted to a volume of 10 ml/kg for dosing by oral administration or i.p. injection. Sorafenib was dissolved in a vehicle composed by 1% ethanol+1% Cremophor+98% saline for i.p. injection.
Control rats were treated with an equal volume of the sorafenib vehicle. Sorafenib was administered once daily for 14 consecutive days. Dimiracetam, gabapentin and duloxetine were administered once daily on day 14 after sorafenib treatment.
Rats were placed inside a stainless steel container, thermostatically set at 4° C. in a precision water-bath from KW Mechanical Workshop, Siena, Italy. Reaction times (in seconds) were measured with a stop-watch before and at regular intervals; the endpoint used was the licking of the fore or hind paws. An arbitrary cut-off time of 60 s was adopted (see Beyreuther et al., Eur. J. Pharmacol. 565, 98-104, 2007).
All experimental results are given as the mean±S.E.M. An analysis of variance, ANOVA, followed by Fisher's protected least significant difference procedure for post hoc comparison, was used to verify significance between two means of behavioral results. Data were analyzed with the StatView software for the Macintosh (1992). P values≦0.05 were considered significant.

[2] = tested on: sorafenib induced allodynia; test: Chronic experiment: rat cold plate test, sorafenib induced allodynia; format: in vivo; conditions: for Licking latency, Before all Treatments: baseline, mean of 8 rats
Protocol: 1986 (86/609/EEC) for experimental animal care.
Dimiracetam, duloxetine and gabapentin were dissolved in water.
Sorafenib was dissolved in a vehicle constituted by 1% ethanol+1% Cremophor+[…]. Sorafenib was administered once daily for 14 days. Dimiracetam was administered by oral gavage twice daily for 14 days (co-administered with sorafenib).
P values≦0.05 were considered significant.

[3] = Blood levels in healthy volunteers during Phase I studies; format: in vivo; conditions: 1600 bid dose (3200 mg daily)
Protocol: Blood levels were determined in healthy volunteers during Phase I studies.
The blood levels were determined for 1600 bid dose (i.e. 3200 mg daily).

[4] = 15 min after single p.o. dose (dimiracetam 300, gabapentin 100, duloxetine 30 mg/kg) on day 14 of sorafenib 10 mg/kg
[5] = 30 min after single p.o. dose (dimiracetam 300, gabapentin 100, duloxetine 30 mg/kg) on day 14 of sorafenib 10 mg/kg
[6] = 60 min after single p.o. dose (dimiracetam 300, gabapentin 100, duloxetine 30 mg/kg) on day 14 of sorafenib 10 mg/kg
[7] = baseline before all treatments, group later given test drug p.o. + sorafenib 10 mg/kg once daily 14 days, cold plate 4° C., mean ± S.E.M., 5 rats
[8] = day 14 of sorafenib 10 mg/kg, before single p.o. dose of test drug, cold plate 4° C.

CNCC[C@H](Oc1cccc2ccccc12)c1cccs1 [DULOXETINE, duloxetine]
Licking latency, 14° day 15 min [1, 4]: 14.2 ± 1.6 s
Licking latency, 14° day 30 min [1, 5]: 14.6 ± 1.5 s
Licking latency, 14° day 60 min [1, 6]: 13.4 ± 1.7 s
Licking latency, Pre test before all treatments [1, 7]: 27.8 ± 1.7 s
Licking latency, 14° day Pre test [1, 8]: 13.2 ± 1.2 s
Acute antiallodynic efficacy on sorafenib induced allodynia (in words) [1]: no significant effect

O=C1CN2C(=O)CCC2N1 (centres unmarked) [DIMIRACETAM, 2,5-dioxohexahydro-1H-pyrrolo[1,2-a]imidazole]
Licking latency, 14° day 15 min [1, 4]: 19.8 ± 1.5 s
Licking latency, 14° day 30 min [1, 5]: 16.0 ± 1.9 s
Licking latency, 14° day 60 min [1, 6]: 15.4 ± 1.4 s
Licking latency, Pre test before all treatments [1, 7]: 26.8 ± 3.0 s
Licking latency, Pre test before all treatments ([1]; baseline, group given sorafenib vehicle i.p. + dimiracetam 300 mg/kg p.o. (no sorafenib)): 27.2 ± 2.8 s
Licking latency, 14° day Pre test [1, 8]: 15.8 ± 1.8 s
Acute antiallodynic efficacy on sorafenib induced allodynia (in words) [1]: statistically significant effect on sorafenib induced allodynia 15 min after administration
Licking latency, 14° day Pre test ([1]; vehicle i.p. 14 days (no sorafenib), before dimiracetam 300 mg/kg p.o.): 28.4 ± 2.1 s
Licking latency, 14° day 15 min ([1]; vehicle i.p. (no sorafenib), 15 min after dimiracetam 300 mg/kg p.o.): 29.0 ± 1.9 s
Licking latency, 14° day 30 min ([1]; vehicle i.p. (no sorafenib), 30 min after dimiracetam 300 mg/kg p.o.): 28.2 ± 2.3 s
Licking latency, 14° day 60 min ([1]; vehicle i.p. (no sorafenib), 60 min after dimiracetam 300 mg/kg p.o.): 27.2 ± 3.0 s
Licking latency, Before all Treatments ([2]; group given dimiracetam 150 mg/kg p.o. b.i.d. + sorafenib 10 mg/kg i.p. once daily 14 days): 27.3 ± 1.1 s
Licking latency, After 14 days of treatment, 1 h ([2]; dimiracetam 150 mg/kg p.o. b.i.d. + sorafenib 10 mg/kg i.p. 14 days, 1 h after end of treatment): 23.8 ± 1.1 s
Licking latency, After 14 days of treatment, 4 h ([2]; dimiracetam 150 mg/kg p.o. b.i.d. + sorafenib 10 mg/kg i.p. 14 days, 4 h after end of treatment): 23.3 ± 1.1 s
Licking latency, After 14 days of treatment, 8 h ([2]; dimiracetam 150 mg/kg p.o. b.i.d. + sorafenib 10 mg/kg i.p. 14 days, 8 h after end of treatment): 22.8 ± 1.2 s
Licking latency, After 14 days of treatment, 24 h ([2]; dimiracetam 150 mg/kg p.o. b.i.d. + sorafenib 10 mg/kg i.p. 14 days, 24 h after end of treatment): 21.9 ± 1.1 s
Licking latency, After 14 days of treatment, 48 h ([2]; dimiracetam 150 mg/kg p.o. b.i.d. + sorafenib 10 mg/kg i.p. 14 days, 48 h after end of treatment): 19.0 ± 0.6 ^ s
Licking latency, After 14 days of treatment, 72 h ([2]; dimiracetam 150 mg/kg p.o. b.i.d. + sorafenib 10 mg/kg i.p. 14 days, 72 h after end of treatment): 14.9 ± 0.6 s
Licking latency, After 14 days of treatment, Pretest ([2]; dimiracetam 150 mg/kg p.o. b.i.d. + sorafenib 10 mg/kg i.p. 14 days, before last administration): 24.3 ± 0.8 s
Duration of statistically significant antiallodynic effect after end of treatment ([2]; dimiracetam 150 mg/kg p.o. b.i.d. for 14 consecutive days with sorafenib): up to 48 h
Chronic antiallodynic effect (in words) ([2]; dimiracetam 150 mg/kg p.o. b.i.d. for 14 consecutive days, evaluated on day 14): statistically significant antiallodynic effect
Development of tolerance (in words) ([2]; general statement, no data given): not to develop tolerance
Blood level, mean minimal level over 24 hours (Cmin) [3]: 136 µM
Cmax ([3]; human, blood, read-out: Blood level, mean maximal level over 24 hours (Cmax)): 536 µM

NCC1(CC(=O)O)CCCCC1 [GABAPENTIN, gabapentin]
Licking latency, 14° day 15 min [1, 4]: 13.2 ± 1.8 s
Licking latency, 14° day 30 min [1, 5]: 13.6 ± 1.2 s
Licking latency, 14° day 60 min [1, 6]: 13.8 ± 1.8 s
Licking latency, Pre test before all treatments [1, 7]: 26.8 ± 2.3 s
Licking latency, 14° day Pre test [1, 8]: 15.4 ± 2.0 s
Acute antiallodynic efficacy on sorafenib induced allodynia (in words) [1]: no significant effect

CNC(=O)c1cc(Oc2ccc(NC(=O)Nc3ccc(Cl)c(C(F)(F)F)c3)cc2)ccn1 [SORAFENIB, sorafenib]
Licking latency, Pre test before all treatments ([1]; baseline, group given sorafenib 10 mg/kg i.p. + water p.o.): 28.6 ± 2.1 s
Licking latency, 14° day 15 min ([1]; sorafenib 10 mg/kg i.p. once daily 14 days, 15 min after water p.o.): 14.0 ± 1.8 s
Licking latency, 14° day 30 min ([1]; sorafenib 10 mg/kg i.p. once daily 14 days, 30 min after water p.o.): 13.6 ± 1.8 s
Licking latency, 14° day 60 min ([1]; sorafenib 10 mg/kg i.p. once daily 14 days, 60 min after water p.o.): 14.4 ± 2.3 s
Licking latency, 14° day Pre test ([1]; sorafenib 10 mg/kg i.p. once daily 14 days, before water p.o.): 13.8 ± 2.0 s
Induction of allodynia by sorafenib (in words) ([1]; sorafenib 10 mg/kg i.p. once daily in rats, cold plate, day 14): induced an allodynic responses to thermal stimuli
Licking latency, Before all Treatments ([2]; group given water + sorafenib 10 mg/kg i.p. once daily 14 days): 26.9 ± 1.4 s
Licking latency, After 14 days of treatment, Pretest ([2]; water + sorafenib 10 mg/kg i.p. once daily 14 days): 14.8 ± 1.3 s
Licking latency, After 14 days of treatment, 1 h ([2]; water + sorafenib 10 mg/kg i.p. once daily 14 days, 1 h): 14.3 ± 1.4 s
Licking latency, After 14 days of treatment, 4 h ([2]; water + sorafenib 10 mg/kg i.p. once daily 14 days, 4 h): 15.1 ± 1.5 s
Licking latency, After 14 days of treatment, 8 h ([2]; water + sorafenib 10 mg/kg i.p. once daily 14 days, 8 h): 16.0 ± 1.1 s
Licking latency, After 14 days of treatment, 24 h ([2]; water + sorafenib 10 mg/kg i.p. once daily 14 days, 24 h): 14.0 ± 1.1 s
Licking latency, After 14 days of treatment, 48 h ([2]; water + sorafenib 10 mg/kg i.p. once daily 14 days, 48 h): 14.3 ± 1.2 s
Licking latency, After 14 days of treatment, 72 h ([2]; water + sorafenib 10 mg/kg i.p. once daily 14 days, 72 h): 15.0 ± 1.0 s
